# Source: patent US20230103774A1, “USE OF KAURANE COMPOUNDS IN PREPARATION OF DRUG FOR PREVENTION AND TREATMENT OF SEPSIS AND MULTIPLE ORGAN DAMAGE” (KEY-PHARMA BIOMEDICAL INC., priority 2020, published 2023)
# “Also recorded” adds a separate entry of the source.
# Key:
# LPS-induced septic mice [1] = assay: liver function of LPS-induced septic mice (plasma ALT, AST, SOD, histopathology); type: in vivo
# Text: The prepared plasma of each group was taken to determine the levels of alanine aminotransferase (ALT), aspartate aminotransferase (AST) and superoxide dismutase (SOD) in plasma by a microplate reader according to the manufacture's instruction.
# HIF-1α = HIF-1α expression after LPS and macrophage regulation
# mitochondria = assay: mitochondrial protection during sepsis; details: administration during sepsis
# LPS-induced septic mice [2] = assay: renal function of LPS-induced septic mice (plasma BUN, Crea, histopathology); type: in vivo
# Text: The prepared plasma of each group was taken to determine the levels of urea nitrogen (BUN) and creatinine (Crea) in plasma by a microplate reader following the manufacture's instruction.
# solubility = type: physicochemical; details: sodium salt versus compound A
# [3] = test system: LPS-induced septic Balb/C mice; assay: mortality of LPS-induced septic Balb/C mice after intraperitoneal compound A; type: in vivo; details: for improved the survival rate of mice: P<0.01
# Protocol: This example mainly observes the effect of intraperitoneal injection of different doses of Compound A on the mortality of LPS-septic Balb/C mice.
# To observe the effect of intraperitoneal injection of different doses of compound A on the mortality of LPS-induced sepsis mice.
# The mice were randomly divided into 6 groups: • (1) Control group: intraperitoneal injection of physiological saline (solvent) (0.1 ml/10 g) once a day for three consecutive days, 1 hour after intraperitoneal injection on the third day, intraperitoneal injection of physiological saline (0.2 ml/10 g); • (2) LPS group: intraperitoneal injection of saline (0.1 ml/10 g), 1 time/d for 3 consecutive days, 1 hour after intraperitoneal injection on the third day, intraperitoneal injection of LPS (20 mg/kg, 0.1 ml/10 g). • (3) Compound A (5 mg/kg)+LPS group: intraperitoneal injection of compound A (5 mg/kg, 0.1 ml/10 g), 1 time/d for 3 consecutive days, 1 hour after intraperitoneal injection on the third day, intraperitoneal injection LPS (20 mg/kg, 0.1 ml/10 g). • (4) Compound A (10 mg/kg)+LPS group: intraperitoneal injection of compound A (10 mg/kg, 0.1 ml/10 g), 1 time/d for 3 consecutive days, 1 hour after intraperitoneal injection on the third day, intraperitoneal injection LPS (20 mg/kg, 0.1 ml/10 g). • (5) Compound A (20 mg/kg)+LPS group: intraperitoneal injection of compound A (20 mg/kg, 0.1 ml/10 g), 1 time/d for 3 consecutive days, 1 hour after intraperitoneal injection on the third day, intraperitoneal injection LPS (20 mg/kg, 0.1 ml/10 g). • (6) Compound A (60 mg/kg)+LPS group: intraperitoneal injection of compound A (60 mg/kg, 0.1 ml/10 g), 1 time/d for 3 consecutive days, 1 hour after intraperitoneal injection on the third day, intraperitoneal injection LPS (20 mg/kg, 0.1 ml/10 g).
# After intraperitoneal injection of LPS, the survival of mice in each group was observed every 12 h for six consecutive days.
# Based on the previously reports, the dose of 5 mg/kg for adults is an acceptable and safe dose, and the maximum blood concentration reaches 20 μM, which is equivalent to 45 mg/kg in mice. Accordingly, 10 mg/kg STV-Na was employed for further studies.
# [4] = test system: white blood cells, neutrophils and monocytes; assay: white blood cells, neutrophils and monocytes in LPS induced septic mice; type: in vivo; details: versus LPS group
# [5] = dose of 5 mg/kg for adults; cited from earlier work
# [6] = test system: primary peritoneal macrophages; assay: flow cytometry of M1/M2 primary peritoneal macrophages of LPS induced septic mice; type: in vivo; details: 6 hours after 20 mg/kg LPS i.p., versus LPS group
# Protocol: This example illustrates the effect of compound A on macrophage polarization. • (1) Grouping of experimental animals: 6-8 week old Balb/c male mice were randomly divided into 4 groups after one week of adaptive feeding, 10 mice in each group, namely the Control group, the LPS group, the compound A group and the dexamethasone group. The LPS group, compound A group and dexamethasone group were given intraperitoneally injection of a 20 mg/kg of LPS. […]
# [7] = test system: lactate dehydrogenase (LDH) and creatine kinase (CK) in plasma; assay: plasma myocardial injury indexes LDH and CK; type: in vivo; details: LPS-induced septic mice, versus LPS group, p<0.01
# Protocol: Serum lactate dehydrogenase (LDH) and creatine kinase (CK) were determined according to the istructions provided by Nanjing Jiancheng Biotechnology Co., Ltd.
# LPS-induced septic mice [8] = assay: cardiac function of LPS-induced septic mice by echocardiography (Vevo2100); type: in vivo; details: for ejection fraction (EF) / fractional shortening (FS): 6 h after i.p. LPS, versus LPS group
# Text: Six hours after intraperitoneal injection of LPS, mice in each group were weighed and anesthetized, and the cardiac function of the mice was detected by Vevo2100 imaging system. The mice were put into the recumbent position and fixed on a constant temperature heating plate under heart rate of 400-500 times per minute. The limbs were fixed on the four metal poles with tape. The ultrasound probe was placed in the left thoracic region of the mouse, and the short axis of the parasternal left ventricle was obtained by 2D ultrasound. The left ventricular motion was recorded at the papillary muscle level by M-ultrasound, and heart rate (HR), left ventricular systolic diameter (LVID: FS), left ventricular diastolic diameter (LVID: d), left ventricular systolic diameter (LVID: FS), left ventricular diastolic diameter (LVID: Fd), and left ventricular diastolic […] thickness (LVPWF: FdF) were measured. Using Vevo2100 small animal ultrasound system software to process and analyze the acquired images. Determination of mouse plasma myocardial injury indexes (LDH and CK)
# Ejection Fractions (EF), refers to the percentage of cardiac stroke volume in ventricular end-diastolic volume, which is an indicator of myocardial contractility. […] The left ventricular short-axis shortening rate (fractional shortening, FS) refers to the ratio of the inner diameter of the ventricle at the end systole to the inner diameter of the ventricular end diastole, and also reflects the systolic function of the heart (FS=(left ventricular end-diastolic diameter (LVDd)−Left ventricular end-systolic diameter (LVDs))/left ventricular end-diastolic diameter×100%).
# TNF-α, IL-6 and IL-1β = assay: pro-inflammatory cytokine expression in plasma of septic mice; type: in vivo; details: 6 h after intraperitoneal injection of LPS; different doses
# septic lung tissues = assay: acute lung injury caused by sepsis (lung tissue, blood oxygen saturation); type: in vivo; details: septic mice
# [9] = test system: macrophage M1 and M2 in cardiac tissue; assay: ROS and M1/M2 macrophages in heart of septic mice; type: in vivo
# [10] = test system: LPS-induced lung injury mice; assay: lung function by whole body plethysmography (Penh, EF50, TV); type: in vivo
# Protocol: The lung function of each group of mice was measured at 6 h. Mice were placed in a closed chamber of a whole body plethysmograph (BUXCO, USA), and the plethysmographic chamber was connected to a sensor. […] In this experiment, we used Buxco's pulmonary function testing system to measure and record the 50% tidal expiratory volume, tidal volume, and changes in airway responsiveness in each group of mice by whole body plethysmography to assess lung function. This method offers a real-time lung function of mice under non-invasive conditions. Penh is a pulmonary function parameter related to airway resistance and intrapleural pressure, and Penh is used as an index to evaluate airway response.
# [11] = test system: Animals that survived sepsis; assay: fibrosis of affected organs after recovery from sepsis; type: in vivo
# [12] = under certain conditions in vitro; cited from earlier work
# LPS-induced septic mice [13] = assay: spleen/body weight ratio after LPS; type: in vivo; details: even lower than that of the Control group
# Protocol: The fur color, consciousness, physical activity, diet, etc. of the mice were observed, and the heart, liver, spleen, lung and kidney of the mice were weighed 6 hours after intraperitoneal injection of LPS.
# [14] = pretreated septic mice versus LPS group
# [15] = 6 hours after LPS injection, versus LPS group, p<0.01
smiles,measurement,setting,value
"C[C@@]12CC[C@@H]3[C@@](CC[C@H]4[C@@]3(C)CCC[C@@]4(C)C(=O)O)(CC1=O)C2 [Compound A, (4α, 8β, 13 β)-13-METHYL-16-OXO-17-Norkauran-18-OIC acid]",alanine aminotransferase (ALT) in plasma,LPS-induced septic mice [1]; LPS-induced septic mice,significantly decreased
same,aspartate aminotransferase (AST) in plasma,LPS-induced septic mice [1]; LPS-induced septic mice,significantly decreased
same,superoxide dismutase (SOD) in plasma,LPS-induced septic mice [1]; LPS-induced septic mice,significantly decreased
same,infiltration of inflammatory cells in liver (histopathological staining),LPS-induced septic mice [1]; septic animals,reduced
same,HIF-1α expression,HIF-1α; after LPS injection,reduced
same,metabolic regulation effect on macrophages,"HIF-1α; with DMOG, a competitive inhibitor of HIF-1α prolyl hydroxylase",abolished
same,cytochrome C release,mitochondria,reduce
same,inflammation cytokine TNF-α and IL-1β,mitochondria,inhibiting
same,mitochondrial membrane potential,mitochondria,increase
same,number of mitochondria,mitochondria,increase
same,production of superoxide such as NO in cells,mitochondria,reduce
same,creatinine (Crea) in plasma,LPS-induced septic mice [2]; LPS-induced septic mice,significantly reduced
same,urea nitrogen (BUN) in plasma,LPS-induced septic mice [2]; LPS-induced septic mice,significantly decreased
same,urea nitrogen (BUN) in plasma,"LPS-induced septic mice [2]; LPS-induced septic mice, listed as compound A",significantly reduced
same,lesions in the glomerulus and renal tubules (histopathological staining),LPS-induced septic mice [2]; septic animals,milder than those in the model group
same,solubility,solubility,better solubility
same,survival of mice,"[3]; 5 mg/kg i.p. 1 time/d for 3 days, then LPS 20 mg/kg i.p., no significant difference with the LPS group (p>0.05)",all mice in the 5 mg/kg compound A group died
same,improved the survival rate of mice,"[3]; 10 mg/kg i.p. 1 time/d for 3 days, then LPS 20 mg/kg i.p.",52%
same,improved the survival rate of mice,"[3]; 20 mg/kg i.p. 1 time/d for 3 days, then LPS 20 mg/kg i.p.",67%
same,survival rate of mice,"[3]; 10-20 mg/kg, large dose of LPS i.p., up to more than two-thirds surviving",significantly improved
same,"level of white blood cells, neutrophils and monocytes",[4],significantly reduced
same,maximum blood concentration,[5],20 µM
same,M1 peritoneal macrophages (F4/80+CD11c+ CD206−),[6],significantly inhibit; also recorded: significantly reduced
same,M2 peritoneal macrophages (F4/80+CD11c− CD206+),[6],significantly inhibit; also recorded: significantly reduced
same,CK level in plasma,[7],significantly decreased
same,LDH level in plasma,[7],downward trend
same,LDH level in plasma,[7]; listed as STV-Na,significantly decreased
same,ejection fraction (EF),LPS-induced septic mice [8],significantly improved
same,fractional shortening (FS),LPS-induced septic mice [8],significantly higher
same,ejection fraction (EF),LPS-induced septic mice [8]; listed as STV-Na,markedly increased
same,fractional shortening (FS),LPS-induced septic mice [8]; listed as STV-Na,markedly increased
same,CO,LPS-induced septic mice [8]; [14],markedly increased
same,SV,LPS-induced septic mice [8]; [14],markedly increased
same,"TNF-α, IL-1β and IL-6 in plasma","TNF-α, IL-6 and IL-1β",dose-dependently decreased
same,blood oxygen saturation,septic lung tissues,significantly increased
same,lung function / acute lung injury and failure caused by sepsis,septic lung tissues,significantly recovered
same,lung inflammation,septic lung tissues,significantly reduced
same,lung tissue structure,septic lung tissues,basically normal
same,level of ROS in heart,[9],inhibited
same,biomarkers of M1 and M2 macrophages and number of macrophages in cardiac tissue,"[9]; M1: IL-1β, McP1, CD11c, M2: Ym1, CD206",significantly decreased
same,EF50 (expiratory flow at 50% tidal volume),[10]; [15],significantly higher
same,TV (tidal volume),[10]; [15],significantly higher
same,airway reactivity (Penh),[10]; septic mice,returned to normal
same,"fibrosis and collagen deposition in the lungs, heart, liver, and kidney",[11],marked reduction
"C=C1C[C@@]23CC[C@H]4[C@@](C)(CCC[C@@]4(C)C(=O)O)[C@@H]2CC[C@]1(O)C3 [Compound B, ENT13Hyrdoxyaur-16-EN-18-Oic acid]",mutagenicity,[12],mutagenic
C[C@@H]1C[C@H]2[C@@H]3CCC4=CC(=O)C=C[C@]4(C)[C@@]3(F)[C@@H](O)C[C@]2(C)[C@@]1(O)C(=O)CO [dexamethasone],spleen/body weight ratio,LPS-induced septic mice [13],significantly reduced
